One molecule from ChEMBL document CHEMBL3046662, “Hypoglycemic and insulin mimetic impact of catechin isolated from Cassia fistula: a substantiate in silico approach through docking analysis” (Med Chem Res, 2012) can be followed below.

SMILES strings stand for the structures. Calls of active or inactive are those of the source. The rule behind the calls is not given here.

This test deals with Rattus norvegicus. The experiment in a line: Hypoglycemic activity in Rattus norvegicus albino Wistar (rat) streptozotocin-induced diabetic model assessed as reduction of plasma glucose level at 20 mg/kg, po qd for 60 days measured up to 180 min by oral glucose tolerance test. Format: functional, organism-based. Also on record: dose 20 mg/kg.

Consider `Oc1cc(O)c2c(c1)OC(c1ccc(O)c(O)c1)C(O)C2` (stereo unspecified), for which the outcome was Active.
